This is an account of results in article PMC3362575, “Synthesis and Biological Evaluation of Phenanthrenes as Cytotoxic Agents with Pharmacophore Modeling and ChemGPS-NP Prediction as Topo II Inhibitors” (PLoS ONE, 2012).

For series [1], the system named is human topoisomerase IIα. The arrangement: method as in PMID 15182198. The following applies: cited from earlier work.
Series [2] deals with A549. The series is described as follows: MTT cytotoxicity assay, A549. The class given is cell-based, human. The following applies: Homo sapiens. The method, then:
(§1) The cytotoxic assay of 11 naturally occurring and 19 synthesized phenanthrenes was carried out on a diverse set of human liver (HepG2 and Hep3B), oral (Ca9-22), lung (A549) and breast (MEA-MB-231 and MCF7) cancer cell lines, and a human fetal lung fibroblast (MRC-5) cell line (Tables 1 and 2).
(§2) Compounds were tested against human liver (HepG2 and Hep3B), oral (Ca9-22), lung (A549), breast (MEA-MB-231 and MCF7) cancer cell lines, and the human fetal lung fibroblast (MRC-5) cell line using an established colorimetric MTT assay protocol. The absorbance was measured at 550 nm using a microplate reader. The IC50 is the concentration of agent that reduced cell growth by 50% under the experimental conditions.

The test system of series [3] is Hep3B. The series is described as follows: MTT cytotoxicity assay, Hep3B. In kind it is cell-based, human. The following applies: Homo sapiens, Hep3B. The method, then: as §1, §2
The subject of series [4] is MRC-5. The series is described as follows: MTT cytotoxicity assay, MRC-5 fetal lung fibroblast. The following applies: Homo sapiens, normal fetal lung fibroblast. The class given is cell-based, human. The procedure:
as §1, §2

Series [5] has as its system human cancer cell lines. The experiment in a line: MTT cytotoxicity assay, ranges over the cancer cell line panel. In kind it is cell-based. The procedure: as §1, §2
Series [6] deals with HepG2. The series is described as follows: MTT cytotoxicity assay, HepG2. In kind it is cell-based, human. The following applies: Homo sapiens. The procedure:
as §1, §2

The test system of series [7] is MDA-MB-231. The experiment in a line: MTT cytotoxicity assay, MDA-MB-231. The class given is cell-based, human. The settings on record: Homo sapiens. The procedure: as §1, §2
For series [8], the system named is MCF-7. The experiment in a line: MTT cytotoxicity assay, MCF-7. The settings on record: Homo sapiens; for IC50: MTT. The class given is cell-based, human. The procedure:
as §1, §2
The pharmacophore modeling with Catalyst HypoGen was performed via Discovery Studio 2.1 (Accelrys, San Diego, CA, USA). Twenty-nine phenanthrene derivatives were collected from the natural plant, C. arisanensis, and from chemical synthesis (Figure 2). Cytotoxicity against MCF-7 cells was determined by the MTT assay and the concentration (µg/mL) of test compound which inhibited 50% of the cancer cells (IC50) was used in the generation of the pharmacophore model. An IC50 value of >20 µg/mL was defined as 20 µg/mL. All experimental IC50 values spanned about 2–3 orders of magnitude from 0.09 to 20 µg/mL. The 2D/3D structures of compounds were generated using ChemBioOffice 2008 (Cambridge Scientic Computing, Cambridge, Massachusetts, USA) and then optimized in a Dreiding force field. The conformational ensemble of each compound was generated using the best conformational analysis method based on a CHARMM force field with a 20 kcal/mol energy threshold above the global minimum. A maximum limit of 255 conformations was used to cover maximum conformational space. The best 3D arrangements of chemical functionalities should explain the activity variations among the 29 compounds. Thirty runs with different parameters were performed for the best pharmacophore hypothesis. Four chemical features, including hydrogen-bond acceptor (HBA), hydrogen-bond donor (HBD), hydrophobic (HYD), and aromatic ring (AR) features, were also tested during the building of pharmacophore hypotheses (Table S1; Text S1). The best hypotheses were selected via a correlation and a cost analysis in Catalyst HypoGen.

The subject of series [9] is Ca9-22. The series is described as follows: MTT cytotoxicity assay, Ca9-22. In kind it is cell-based, human. The settings on record: Homo sapiens. The procedure: as §1, §2
The target in series [10] is T1, topoisomerase IIα (Homo sapiens, UniProt P11388).
T1 construct: purchased TopoGEN, Inc
The series is described as follows: Topoisomerase II DNA cleavage assay (Topo II Drug Screening Kit). In kind it is biochemical. The procedure: From the ChemGPS-NP analysis, it seems that the MOA for 3-methoxy-1,4-PQs might processes cytotoxicity as a topoisomerase II inhibitor.
Figure 10 Topoisomerase II DNA cleavage assay. An in vitro assay was used to assess the effect of compounds 6a and 5a on the DNA cleavage activity of human TopoII. Etoposide was the positive control. Control lane: TopoIIα + plasmid DNA. DMSO lane: TopoIIα + plasmid DNA + DMSO.
Topoisomerase II assay was performed by using a Topo II Drug Screening Kit (TopoGEN, Inc.). In brief, 0.1 µg of pHOT plasmid DNA was incubated with 2 units of topoisomerase IIα in 20 µL assay buffer at 37°C for 40 min in the presence of tested compounds (6a, 5a) and control drug, etoposide, respectively. 2 µL of 10% SDS and 2.5 µL of 10 mg/mL proteinase K were added into the reaction sample and then incubated for 30 min at 37°C to digest topoisomerase IIα. The samples were mixed with 2 µL of loading buffer and cleaned up by adding an equal volume of phenol:chloroform:isoamyl alcohol (25∶24∶1) according to the description. The sample was mixed by vortex and centrifuge for 10 sec. An aliquot (10 µL) of the upper aqueous part was analyzed by electrophoresis with 2% agarose gel containing 0.5 µg/mL of ethidium bromide.

Converted amounts (≈) assume the structure as drawn.

T1 sequence (P11388 whole entry): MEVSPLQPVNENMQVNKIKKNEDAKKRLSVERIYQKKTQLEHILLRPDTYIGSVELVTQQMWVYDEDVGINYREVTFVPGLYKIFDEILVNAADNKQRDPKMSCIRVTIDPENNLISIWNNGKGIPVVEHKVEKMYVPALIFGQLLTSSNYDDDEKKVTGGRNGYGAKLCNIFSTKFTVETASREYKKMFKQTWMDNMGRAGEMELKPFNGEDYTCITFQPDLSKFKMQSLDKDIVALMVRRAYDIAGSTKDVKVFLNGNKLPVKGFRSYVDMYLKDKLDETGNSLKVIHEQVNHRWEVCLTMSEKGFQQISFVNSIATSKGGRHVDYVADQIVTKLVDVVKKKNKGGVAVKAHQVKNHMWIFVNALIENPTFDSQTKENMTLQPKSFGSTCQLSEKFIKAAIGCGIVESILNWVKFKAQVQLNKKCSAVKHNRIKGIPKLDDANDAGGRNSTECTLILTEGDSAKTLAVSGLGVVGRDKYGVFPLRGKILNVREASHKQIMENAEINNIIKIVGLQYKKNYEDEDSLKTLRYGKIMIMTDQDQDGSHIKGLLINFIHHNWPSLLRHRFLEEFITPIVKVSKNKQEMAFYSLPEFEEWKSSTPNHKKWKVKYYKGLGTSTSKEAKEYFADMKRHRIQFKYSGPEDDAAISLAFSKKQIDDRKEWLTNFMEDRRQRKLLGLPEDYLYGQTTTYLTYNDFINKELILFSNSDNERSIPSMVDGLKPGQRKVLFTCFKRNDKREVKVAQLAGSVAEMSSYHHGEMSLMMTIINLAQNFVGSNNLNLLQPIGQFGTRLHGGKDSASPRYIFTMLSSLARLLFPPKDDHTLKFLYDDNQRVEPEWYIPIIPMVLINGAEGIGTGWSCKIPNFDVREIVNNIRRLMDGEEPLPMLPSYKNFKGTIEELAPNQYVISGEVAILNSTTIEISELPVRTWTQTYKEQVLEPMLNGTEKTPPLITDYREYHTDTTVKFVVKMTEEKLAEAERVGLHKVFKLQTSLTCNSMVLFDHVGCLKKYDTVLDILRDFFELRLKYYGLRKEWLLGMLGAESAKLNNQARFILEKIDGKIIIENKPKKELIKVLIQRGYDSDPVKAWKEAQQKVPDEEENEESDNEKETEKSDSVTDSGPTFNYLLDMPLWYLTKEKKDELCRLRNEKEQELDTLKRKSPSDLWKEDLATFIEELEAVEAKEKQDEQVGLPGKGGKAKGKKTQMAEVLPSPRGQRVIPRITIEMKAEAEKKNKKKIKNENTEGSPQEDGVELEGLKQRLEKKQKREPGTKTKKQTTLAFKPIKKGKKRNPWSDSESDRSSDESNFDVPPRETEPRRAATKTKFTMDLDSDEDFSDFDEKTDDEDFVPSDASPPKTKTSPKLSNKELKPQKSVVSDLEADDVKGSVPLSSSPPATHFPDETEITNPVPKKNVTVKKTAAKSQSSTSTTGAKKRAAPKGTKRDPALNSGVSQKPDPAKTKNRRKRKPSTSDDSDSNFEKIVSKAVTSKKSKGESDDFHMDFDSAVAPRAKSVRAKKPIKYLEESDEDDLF

As to `O=C1C=CC(=O)C=C1` [1,4-benzoquinone], in series [1], the “poisoning of human topoisomerase IIα” value is on record as “poison human topoisomerase IIα”.

On to `COC1=CC(=O)c2ccc3cc(OC)c(OC)c(O)c3c2C1=O` [Compound 6a, 5-Hydroxy-3,6,7-trimethoxy-1,4-phenanthrenequinone], for which the IC50 is 0.11 µg/mL (≈ 0.35 µM) in series [2] (A549, Table 1, natural phenanthrenes); 0.14 ± 0.02 µg/mL (≈ 0.445 µM) in [2] (A549, Table 2, synthesized phenanthrenes); 0.22 µg/mL (≈ 0.7 µM) in series [3] (Table 1, natural phenanthrenes); 0.19 ± 0.01 µg/mL (≈ 0.605 µM) in [3] (Table 2, synthesized phenanthrenes); 0.65 µg/mL (≈ 2.07 µM) in [4] (MRC5, Table 1, natural phenanthrenes); 0.6 ± 0.05 µg/mL (≈ 1.91 µM) in series [4] (MRC5, Table 2, synthesized phenanthrenes). Further, the IC50 was 0.08 to 1.66 µg/mL (≈ 0.255 to 5.28 µM) in [5] (Homo sapiens, range over the cancer cell lines tested, read-out: IC50 against various / all human cancer cell lines); 0.21 ± 0.01 µg/mL (≈ 0.668 µM) in series [6] (HepG2, Table 1, natural phenanthrenes); 0.08 µg/mL (≈ 0.255 µM) in series [6] (HepG2, Table 2, synthesized phenanthrenes); 0.64 ± 0.06 µg/mL (≈ 2.04 µM) in series [7] (MDA-MB-231, Table 1, natural phenanthrenes); 0.89 ± 0.01 µg/mL (≈ 2.83 µM) in series [7] (MDA-MB-231, Table 2, synthesized phenanthrenes); 0.09 µg/mL (≈ 0.286 µM) in series [8] (MCF7, Table 1, natural phenanthrenes). The IC50 came out at 0.2 µg/mL (≈ 0.636 µM) in series [8] (MCF7, Table 2, synthesized phenanthrenes); 0.17 ± 0.01 µg/mL (≈ 0.541 µM) in series [9] (Ca9-22, Table 1, natural phenanthrenes); 0.59 ± 0.01 µg/mL (≈ 1.88 µM) in series [9] (Ca9-22, Table 2, synthesized phenanthrenes). Further, the “fold greater cytotoxic activity than denbinobin (6b)” value in [5] (HepG2, Hep3B, Ca9-22, A549, MEA-MB-231 and MCF7 cancer cell lines) is given as “up to 7 fold”. Further, in [8] (MCF7, Table S3, read-out: Scale Exptl. (MCF-7 activity class)), the MCF-7 activity class (from IC50) was below 1 µg/mL. The “inhibition on Topo IIα (supercoiled DNA instead of relaxed)” value in series [10] (100 µmol/L) is reported as “showed the inhibition on Topo IIα”. Also, in [10] (pHOT plasmid DNA, topoisomerase IIα), the “formation of linear DNA (Topo IIα DNA cleavage complex)” value is “induced the formation of linear DNA”.
